In patent US12083114B2, “Inhibitors of SARM1 in combination with neuro-protective agents” (Disarm Therapeutics, Inc., priority 2018, dated 2024):

Tested on: DRG axons
Assay: Axon degeneration assay: SARM1 inhibitor with DLK inhibitor, mouse DRG drop culture, manual axotomy
Assay type: cell-based
Conditions: 16 hours post-axotomy
Description: Mouse dorsal root ganglion neurons (DRGs) were dissected out of E12.5 CD1 mice (50 ganglia per embryo) and incubated with 0.5% Trypsin solution containing 0.02% EDTA (Gibco) at 37° C. for 15 min. The cells were then triturated by gentle pipetting and washed 3 times with DRG growth medium (Neurobasal medium (Gibco) containing 2% B27 (Invitrogen), 100 ng/ml 2.5S NGF (Harland Bioproducts), […] 5-fluoro-2′ deoxyuridine (Sigma), penicillin, and streptomycin). Cells were suspended in the DRG growth medium. DRG drop cultures were created by spotting 5000 cells/well into the center of each well of a 96-well tissue culture plate coated with poly-D-Lysine (0.1 mg/ml; Sigma) and laminin ([…]; Invitrogen). Cells were allowed to adhere to the plates in a humidified tissue culture incubator (5% CO2) for 15 min and then DRG growth medium was gently added ([…] well). DRG neurons were maintained in neurobasal medium supplemented with L-glutamine (Invitrogen), 2% (vol/vol) B27 (Invitrogen), 50 ng/mL NGF (Harlan Laboratories), and 1 μM 5-fluoro-2′deoxyuridine plus 1 μM uridine (Sigma) to induce death of mitotic cells. DRG neurons were then seeded on plates pre-coated with poly-D-lysine and laminin.
2 hours prior to axotomy, DRG cultures were treated with SARM1 inhibitors, in the continued presence of the DLK inhibitor. […] Isoquinoline SARM1 inhibitors tested included I-26 and I-86, while isothiazole SARM1 inhibitors tested included II-6 and II-32. The SARM1 inhibitors were tested using concentrations ranging from 0.1 to 30 μM.
A manual axotomy was performed at time 0 by transecting the axons of the DRG neurons with a blade. After the axotomy, DRG cultures remained exposed to the SARM1 inhibitor alone, DLK inhibitor alone, or the combination of SARM1 inhibitor and DLK inhibitor. At 16 hours, DRG cultures were fixed in a buffered solution containing 1% PFA and sucrose and stored at 4° C. prior to imaging. Bright-field images of DRG axons and cell bodies were collected using the 20× water immersion lens of a Phenix automated confocal microscope (PerkinElmer) and quantitation of axonal damage was performed using in-house developed scripts (Acapella, PerkinElmer). The effect of DLK inhibitor alone in protecting distal axons from fragmentation was determined at concentrations of 100 nM and 300 nM. The effect of combining the DLK inhibitor with varying concentrations of a SARM1 inhibitor was compared to the individual protective effects of either 100 nM or 300 nM of DLK inhibitor alone or an equivalent concentration of a SARM1 inhibitor alone.

[1] = SARM1 inhibitor alone, 1.1 μM, FIG. 1B/2B

For `COc1cc(Br)c2ccncc2c1` [I-86], the “axonal protection (degeneration index of DRG axons)” value [1] was “modest level of axonal protection” and the “axonal protection (degeneration index of DRG axons)” value (SARM1 inhibitor alone, 1.1 μM, FIG. 2A) was “a small, but statistically significant amount of axonal protection”.
In the case of `N#Cc1ccnc(Nc2cc(C3CCN(C4COC4)CC3)cc(N3CCC(F)(F)C3)n2)c1` [DLK inhibitor, 2-((6-(3,3-difluoropyrrolidin-1-yl)-4-(1-(oxetan-3-yl)piperidin-4-yl)pyridin-2-yl)amino)isonicotinonitrile, reference compound], the “axonal protection (degeneration index of DRG axons)” value (100 nM DLK inhibitor alone) is reported as “no axonal protection” and the “axonal protection (degeneration index of DRG axons)” value (300 nM DLK inhibitor alone) is reported as “modest but statistically significant level of axonal protection”.
For `N#Cc1c(O)nsc1Nc1ccccc1C(F)(F)F` [II-6], the “axonal protection (degeneration index of DRG axons)” value (SARM1 inhibitor alone, 3.3 μM, FIG. 3B) was “modest level of protection” and the “axonal protection (degeneration index of DRG axons)” value (SARM1 inhibitor alone, 1.1 or 3.3 μM, FIG. 3A) was “modest, but statistically significant axonal protection”.
With `Ic1cccc2cnccc12` [I-26] the “axonal protection (degeneration index of DRG axons)” value [1] was “modest level of protection” and the “axonal protection (degeneration index of DRG axons)” value (SARM1 inhibitor alone, 1.1, 3.3, 10 or 30 μM (all tested concentrations), FIG. 1A) was “significant axonal protection over all tested concentrations”.
With `COCCn1sc(Nc2ccccc2C(F)(F)F)c(C#N)c1=O` [II-32] the “axonal protection (degeneration index of DRG axons)” value (SARM1 inhibitor alone, 0.11, 0.33 or 1.1 μM, FIG. 4A) was “modest but not statistically significant axonal protection” and the “axonal protection (degeneration index of DRG axons)” value (SARM1 inhibitor alone, 0.11, 0.33 or 1.1 μM, FIG. 4B) was “only slight and not statistically significant protection”.
